Among the data in ChEMBL document CHEMBL1146480, “Antimycobacterial Naphthopyrones from Senna obliqua” (2004) are MIC and inhibition values, retold here.

The structures appear in SMILES notation. ≈ marks a conversion by molar mass, not a printed value.

Experiment [1] deals with Mycobacterium tuberculosis. The experiment can be described thus: Antimycobacterial activity against Mycobacterium tuberculosis ATCC 27294 in radiometric culture by NCCLS method. In kind it is functional.
Experiment [2] concerns Mycobacterium tuberculosis. The experiment can be described thus: Antimycobacterial activity against Mycobacterium tuberculosis ATCC 27294 in radiometric culture at 50 ug/ml by NCCLS method. In kind it is functional.

Broadly, the MIC is the least concentration at which growth counts as inhibited. A low value points to greater potency. What is called inhibition is the share of the control response that was lost under treatment. In experiment [1], `COc1cc(O)c2c(O)c3c(=O)cc(C)oc3cc2c1C` [QUINQUANGULIN] came in with a minimum inhibitory concentration (MIC) of 12 µg/mL (≈ 41.9 µM). In experiment [2], this compound returned an inhibition at 50 µg/mL of 99%.
The matching figures for `COc1cc(O)c2c(O)c3c(=O)cc(C)oc3cc2c1` [RUBROFUSARIN]: 12 µg/mL (≈ 44.1 µM) and 99%.
